Biological target: BRD4 (Homo sapiens, UniProt O60885)
Assay: Time resolved fluorescence resonance energy transfer (TR-FRET) binding assay, bromodomain BRD4
Settings: one of the FRET assays described; read-out: FRET BRD4 IC50

Compound	IC50 [nM]
2-{5-[4-(^2H3)Methyl-1-methyl-1H-1,2,3-triazol-5-yl]-8-[1-(pyridin-2-yl)butyl]-3,8,12-triazatricyclo[7.4.0.0^2,^7]trideca-1(13),2(7),3,5,9,11-hexaen-11-yl}propan-2-ol [Example 357]	< 10
2-{8-[(3-Fluoropyridin-2-yl)(oxan-4-yl)methyl]-11-[4-(^2H3)methyl-1-methyl-1H-1,2,3-triazol-5-yl]-3,8,10-triazatricyclo[7.4.0.0^2,^7]trideca-1(9),2,4,6,10,12-hexaen-5-yl}propan-2-ol [Example 362]	< 10
2-{8-[(3-Fluoropyridin-2-yl)(oxan-4-yl)methyl]-11-[4-(^2H3)methyl-1-methyl-1H-1,2,3-triazol-5-yl]-3,8,10-triazatricyclo[7.4.0.0^2,^7]trideca-1(9),2,4,6,10,12-hexaen-5-yl}propan-2-ol [Example 363]	< 1
2-{11-Chloro-5-[4-(^2H3)methyl-1-methyl-1H-1,2,3-triazol-5-yl]-8-[(S)-oxan-4-yl(phenyl)methyl]-3,8,12-triazatricyclo[7.4.0.0^2,^7]trideca-1(13),2(7),3,5,9,11-hexaen-13-yl}propan-2-ol [Example 293]	< 10
2-{13-Methoxy-5-[4-(^2H3)methyl-1-methyl-1H-1,2,3-triazol-5-yl]-8-[(S)-oxan-4-yl(phenyl)methyl]-3,8,12-triazatricyclo[7.4.0.0^2,^7]trideca-1(13),2(7),3,5,9,11-hexaen-11-yl}propan-2-ol [Example 344]	< 10
COc1ccc2c3ncc(-c4c(C)nnn4C)cc3n(C(c3cccc(F)c3)C3CCOCC3)c2n1 (racemic) [Example 16, 5-(Dimethyl-1H-1,2,3-triazol-5-yl)-8-[(3-fluorophenyl)(oxan-4-yl)methyl]-11-methoxy-3,8,10-triazatricyclo[7.4.0.0^2,^7]trideca-1(13),2(7),3,5,9,11-hexaene]	< 10
COc1ccc2c3ncc(-c4c(C)nnn4C)cc3n(C(c3cccc(F)c3F)C3CCOCC3)c2n1 (racemic) [Example 17, 8-[(2,3-Difluorophenyl)(oxan-4-yl)methyl]-5-(dimethyl-1H-1,2,3-triazol-5-yl)-11-methoxy-3,8,10-triazatricyclo[7.4.0.0^2,^7]trideca-1(13),2(7),3,5,9,11-hexaene]	< 10
COc1nccc2c3ncc(-c4c(C)nnn4C)cc3n(C(c3c(F)cc(F)cc3F)C3CCOCC3)c12 (racemic) [Example 24, 5-(Dimethyl-1H-1,2,3-triazol-5-yl)-10-methoxy-8-[oxan-4-yl(2,4,6-trifluorophenyl)methyl]-3,8,11-triazatricyclo[7.4.0.0^2,^7]trideca-1(13),2(7),3,5,9,11-hexaene]	< 10
COc1nccc2c3ncc(-c4c(C)nnn4C)cc3n(C(c3ccc(F)cc3F)C3CCOCC3)c12 (racemic) [Example 25, 8-[(2,4-Difluorophenyl)(oxan-4-yl)methyl]-5-(dimethyl-1H-1,2,3-triazol-5-yl)-10-methoxy-3,8,11-triazatricyclo[7.4.0.0^2,^7]trideca-1(13),2(7),3,5,9,11-hexaene]	< 10
COc1nccc2c3ncc(-c4c(C)nnn4C)cc3n(C(c3cc(F)ccc3F)C3CCOCC3)c12 (racemic) [Example 26, 8-[(2,5-Difluorophenyl)(oxan-4-yl)methyl]-5-(dimethyl-1H-1,2,3-triazol-5-yl)-10-methoxy-3,8,11-triazatricyclo[7.4.0.0^2,^7]trideca-1(13),2(7),3,5,9,11-hexaene]	< 10
COc1nccc2c3ncc(-c4c(C)nnn4C)cc3n(C(c3c(F)cccc3F)C3CCOCC3)c12 (racemic) [Example 27, 8-[(2,6-Difluorophenyl)(oxan-4-yl)methyl]-5-(dimethyl-1H-1,2,3-triazol-5-yl)-10-methoxy-3,8,11-triazatricyclo[7.4.0.0^2,^7]trideca-1(13),2(7),3,5,9,11-hexaene]	< 10
COc1ccc2c3ncc(-c4c(C)nnn4C)cc3n(C(c3ccccc3F)C3CCOCC3)c2n1 (racemic) [Example 28, 5-(Dimethyl-1H-1,2,3-triazol-5-yl)-8-[(2-fluorophenyl)(oxan-4-yl)methyl]-11-methoxy-3,8,10-triazatricyclo[7.4.0.0^2,^7]trideca-1(13),2(7),3,5,9,11-hexaene]	< 10
COc1nccc2c3ncc(-c4c(C)nnn4C)cc3n(C(c3ccccc3F)C3CCOCC3)c12 (single isomer, unassigned) [Example 18, 5-(Dimethyl-1H-1,2,3-triazol-5-yl)-8-[(2-fluorophenyl)(oxan-4-yl)methyl]-10-methoxy-3,8,11-triazatricyclo[7.4.0.0^2,^7]trideca-1(13),2(7),3,5,9,11-hexaene]	< 10
COc1nccc2c3ncc(-c4c(C)nnn4C)cc3n(C(c3ccccc3F)C3CCOCC3)c12 (single isomer, unassigned) [Example 19, 5-(Dimethyl-1H-1,2,3-triazol-5-yl)-8-[(2-fluorophenyl)(oxan-4-yl)methyl]-10-methoxy-3,8,11-triazatricyclo[7.4.0.0^2,^7]trideca-1(13),2(7),3,5,9,11-hexaene]	< 10
COc1nccc2c3ncc(-c4c(C)nnn4C)cc3n(C(c3cccc(F)c3)C3CCOCC3)c12 (single isomer, unassigned) [Example 20, 5-(Dimethyl-1H-1,2,3-triazol-5-yl)-8-[(3-fluorophenyl)(oxan-4-yl)methyl]-10-methoxy-3,8,11-triazatricyclo[7.4.0.0^2,^7]trideca-1(13),2(7),3,5,9,11-hexaene]	< 10
COc1nccc2c3ncc(-c4c(C)nnn4C)cc3n(C(c3cccc(F)c3)C3CCOCC3)c12 (single isomer, unassigned) [Example 21, 5-(Dimethyl-1H-1,2,3-triazol-5-yl)-8-[(3-fluorophenyl)(oxan-4-yl)methyl]-10-methoxy-3,8,11-triazatricyclo[7.4.0.0^2,^7]trideca-1(13),2(7),3,5,9,11-hexaene]	< 1500
COc1nccc2c3ncc(-c4c(C)nnn4C)cc3n(C(c3cccc(F)c3F)C3CCOCC3)c12 (single isomer, unassigned) [Example 22, 8-[(2,3-Difluorophenyl)(oxan-4-yl)methyl]-5-(dimethyl-1H-1,2,3-triazol-5-yl)-10-methoxy-3,8,11-triazatricyclo[7.4.0.0^2,^7]trideca-1(13),2(7),3,5,9,11-hexaene]	< 10
COc1nccc2c3ncc(-c4c(C)nnn4C)cc3n(C(c3cccc(F)c3F)C3CCOCC3)c12 (single isomer, unassigned) [Example 23, 8-[(2,3-Difluorophenyl)(oxan-4-yl)methyl]-5-(dimethyl-1H-1,2,3-triazol-5-yl)-10-methoxy-3,8,11-triazatricyclo[7.4.0.0^2,^7]trideca-1(13),2(7),3,5,9,11-hexaene]	< 1500
[2H]C([2H])([2H])c1nnn(C)c1-c1cnc2c3c(OC)ncc(S(C)(=O)=O)c3n(C(c3c(F)cc(F)cc3F)C3CCOCC3)c2c1 (single isomer, unassigned) [Example 83, 10-Methanesulfonyl-13-methoxy-5-[4-(^2H3)methyl-1-methyl-1H-1,2,3-triazol-5-yl]-8-[oxan-4-yl(2,4,6-trifluorophenyl)methyl]-3,8,12-triazatricyclo[7.4.0.0^2,^7]trideca-1(13),2(7),3,5,9,11-hexaene]	< 1
[2H]C([2H])([2H])c1nnn(C)c1-c1cnc2c3c(OC)ncc(S(C)(=O)=O)c3n(C(c3c(F)cc(F)cc3F)C3CCOCC3)c2c1 (single isomer, unassigned) [Example 84, 10-Methanesulfonyl-13-methoxy-5-[4-(^2H3)methyl-1-methyl-1H-1,2,3-triazol-5-yl]-8-[oxan-4-yl(2,4,6-trifluorophenyl)methyl]-3,8,12-triazatricyclo[7.4.0.0^2,^7]trideca-1(13),2(7),3,5,9,11-hexaene]	< 1500
[2H]C([2H])([2H])c1nnn(C)c1-c1cnc2c3c(OC)ncc(S(C)(=O)=O)c3n(C(c3cccc(F)c3)C3CCOCC3)c2c1 (single isomer, unassigned) [Example 86, 8-[(3-Fluorophenyl)(oxan-4-yl)methyl]-10-methanesulfonyl-13-methoxy-5-[4-(^2H3)methyl-1-methyl-1H-1,2,3-triazol-5-yl]-3,8,12-triazatricyclo[7.4.0.0^2,^7]trideca-1(13),2(7),3,5,9,11-hexaene]	< 10
[2H]C([2H])([2H])c1nnn(C)c1-c1cnc2c3c(OC)ncc(S(C)(=O)=O)c3n(C(c3cccc(F)c3)C3CCOCC3)c2c1 (single isomer, unassigned) [Example 87, 8-[(3-Fluorophenyl)(oxan-4-yl)methyl]-10-methanesulfonyl-13-methoxy-5-[4-(^2H3)methyl-1-methyl-1H-1,2,3-triazol-5-yl]-3,8,12-triazatricyclo[7.4.0.0^2,^7]trideca-1(13),2(7),3,5,9,11-hexaene]	< 1500
COc1ncc(S(C)(=O)=O)c2c1c1ncc(-c3c(C)noc3C)cc1n2C(c1ccccc1)C1CCC(F)(F)CC1 (single isomer, unassigned) [Example 88, 8-[(4,4-Difluorocyclohexyl)(phenyl)methyl]-5-(dimethyl-1,2-oxazol-4-yl)-10-methanesulfonyl-13-methoxy-3,8,12-triazatricyclo[7.4.0.0^2,^7]trideca-1(13),2(7),3,5,9,11-hexaene]	< 10
COc1ncc(S(C)(=O)=O)c2c1c1ncc(-c3c(C)noc3C)cc1n2C(c1ccccc1)C1CCC(F)(F)CC1 (single isomer, unassigned) [Example 89, 8-[(4,4-Difluorocyclohexyl)(phenyl)methyl]-5-(dimethyl-1,2-oxazol-4-yl)-10-methanesulfonyl-13-methoxy-3,8,12-triazatricyclo[7.4.0.0^2,^7]trideca-1(13),2(7),3,5,9,11-hexaene]	< 1500
COc1ncc(S(C)(=O)=O)c2c1c1ncc(-c3c(C)nnn3C)cc1n2C(c1ccccc1)C1CCC(F)(F)CC1 (single isomer, unassigned) [Example 90, 8-[(4,4-Difluorocyclohexyl)(phenyl)methyl]-5-(dimethyl-1H-1,2,3-triazol-5-yl)-10-methanesulfonyl-13-methoxy-3,8,12-triazatricyclo[7.4.0.0^2,^7]trideca-1(13),2(7),3,5,9,11-hexaene]	< 10
